Assay results from patent publication US20160039825A1 (BIOGEN MA INC., priority 2013, published 2016).

What follows are molecules tested against T1, Human ATX protein (Homo sapiens, UniProt Q13822) (assay: Autotaxin (ATX) assay, FRET with FS-3 substrate). Conditions: upper bound bins (no greater than 100, 250 or 500 nM); FS-3 2 μM, ATX 1.0 μg/mL.
T1 construct: made in house
Format: biochemical
Outline: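 Hydrolysis of the FRET substrate FS-3 (2 μM final) unquenches fluorescein, read at excitation 485 nm and emission 538 nm after 2 h at room temperature, protected from light. Purified human ATX (1.0 μg/mL) and compound were first incubated for 30 min in pH 7.4 Tris/salt buffer containing 1 mg/mL fatty acid-free BSA.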

**Q.** For O=C(O)c1cc2n(n1)CCCN(C(=O)OCc1cc(F)cc(Br)c1)C2 [Example 75, 5-(((3-Bromo-5-fluorobenzyl)oxy)carbonyl)-5,6,7,8-tetrahydro-4H-pyrazolo[1,5-a][1,4]diazepine-2-carb oxylic acid], which IC50 is on record?
**A.** The IC50 was ≤ 500 nM.

**Q.** How did the IC50 turn out when O=C(O)c1nn2c(c1Br)CN(C(=O)OCc1cc(C(F)(F)F)cc(C(F)(F)F)c1)CCC2 [Example 115, 5-(((3,5-Bis(trifluoromethyl)benzyl)oxy)carbonyl)-3-bromo-5,6,7,8-tetrahydro-4H-pyrazolo[1,5-a][1,4]diazepine-2-carboxylic acid] was run?
**A.** Its IC50 is ≤ 100 nM.

**Q.** How did the IC50 turn out when O=C(O)c1cc2n(n1)CCCN(C(=O)OCc1cc(C(F)(F)F)cc(C(F)(F)F)c1)C2 [Example 8, 5-(((3,5-Bis(trifluoromethyl)benzyl)oxy)carbonyl)-5,6,7,8-tetrahydro-4H-pyrazolo[1,5-a][1,4]diazepine-2-carboxylic acid] was run?
**A.** Its IC50 is ≤ 100 nM.

**Q.** How did the IC50 turn out when O=C(O)c1cc2n(n1)CCCN(C(=O)OCc1cc(F)cc(Cl)c1)C2 [Example 68, 5-(((3-Chloro-5-fluorobenzyl)oxy)carbonyl)-5,6,7,8-tetrahydro-4H-pyrazolo[1,5-a][1,4]diazepine-2-carboxylic acid] was run?
**A.** Its IC50 is ≤ 500 nM.

**Q.** CC1CN(C(=O)c2cc3n(n2)CCN(C(=O)OCc2cc(C(F)(F)F)cc(C(F)(F)F)c2)C3)CC(C)N1C(=O)OC(C)(C)C (stereo not drawn) [Example 469] was tested. Which IC50 did it give?
**A.** Its IC50 is ≤ 100 nM.

**Q.** Which IC50 does the source give for O=C(OCc1cc(C(F)(F)F)cc(C(F)(F)F)c1)N1CCCn2nc(C3=CC4CCC(C3)N4)cc2C1 (stereo not drawn) [Example 376] here?
**A.** Its IC50 is ≤ 100 nM.

**Q.** With O=C(OCc1cc(Cl)cc(Cl)c1)N1CCCn2nc(C(=O)N3CCN4CCC[C@@H]4C3)cc2C1 [Example 228] as the molecule, how does the IC50 read?
**A.** Its IC50 is ≤ 100 nM.

**Q.** For O=C(OCc1cc(Cl)cc(Cl)c1)N1CCCn2nc(C(=O)N3CCCC3)cc2C1 [Example 18, 3,5-Dichlorobenzyl 2-(pyrrolidine-1-carbonyl)-7,8-dihydro-4H-pyrazolo[1,5-a][1,4]diazepine-5(6H)-carboxylate], which IC50 is on record?
**A.** The IC50 was ≤ 100 nM.

**Q.** For CC(N)c1cc2n(n1)CCCN(C(=O)OCc1cc(C(F)(F)F)cc(C(F)(F)F)c1)C2 (stereo not drawn) [Example 147, 3,5-Bis(trifluoromethyl)benzyl 2-(1-aminoethyl)-7,8-dihydro-4H-pyrazolo[1,5-a][1,4]diazepine-5(6H)-carboxylate], which IC50 is on record?
**A.** The IC50 was ≤ 500 nM.

**Q.** For O=C(OCc1cc(C(F)(F)F)cc(C(F)(F)F)c1)N1CCCn2nc(CN3CCC(F)CC3)cc2C1 [Example 510], which IC50 is on record?
**A.** Its IC50 is ≤ 100 nM.

**Q.** Which IC50 does the source give for CN1CCN(c2cc3n(n2)CCN(C(=O)OCc2cc(C(F)(F)F)cc(C(F)(F)F)c2)C3)CC1 [Example 393, 3,5-bis(Trifluoromethyl)benzyl 2-(4-methylpiperazin-1-yl)-6,7-dihydropyrazolo[1,5-a]pyrazine-5(4H)-carboxylate] here?
**A.** Its IC50 is ≤ 100 nM.

**Q.** Which IC50 does the source give for CN1CCN(C(=O)c2cc3n(n2)CCCN(C(=O)OCc2cc(C(F)(F)F)cc(C(F)(F)F)c2)C3)C2(CCC2)C1 [Example 233] here?
**A.** The IC50 was ≤ 100 nM.

**Q.** For O=C(O)c1cc2n(n1)CCCN(C(=O)OCc1cc(Cl)cc(Cl)c1)C2 [Example 7, 5-(((3,5-Dichlorobenzyl)oxy)carbonyl)-5,6,7,8-tetrahydro-4H-pyrazolo[1,5-a][1,4]diazepine-2-carboxylic acid], which IC50 is on record?
**A.** The IC50 was ≤ 100 nM.

**Q.** With O=C(OCc1cc(C(F)(F)F)cc(C(F)(F)F)c1)N1CCCn2nc(NC3CCCCNC3)cc2C1 (stereo not drawn) [Example 326] as the molecule, how does the IC50 read?
**A.** Its IC50 is ≤ 100 nM.

**Q.** With CN1CCN(C(=O)c2cc3n(n2)CCCN(C(=O)OCc2cc(Cl)cc(C(F)(F)F)c2)C3)C(C(F)(F)F)C1 (stereo not drawn) [Example 178] as the molecule, how does the IC50 read?
**A.** The IC50 was ≤ 100 nM.

**Q.** O=C(OCc1cc(C(F)(F)F)cc(C(F)(F)F)c1)N1CCCn2nc(CN[C@H]3CC[C@H](C(=O)O)CC3)cc2C1 [Example 289] was tested. Which IC50 did it give?
**A.** The IC50 was ≤ 250 nM.

**Q.** Which IC50 does the source give for O=C(OCc1cc(C(F)(F)F)cc(C(F)(F)F)c1)N1CCn2nc(C(=O)N3CCC3)cc2C1 [Example 485] here?
**A.** Its IC50 is ≤ 100 nM.

**Q.** How did the IC50 turn out when CN1CCN(C(=O)c2cc3n(n2)CCCN(C(=O)OCc2cc(C(F)(F)F)cc(C(F)(F)F)c2)C3)C2(CC2)C1 [Example 220] was run?
**A.** Its IC50 is ≤ 100 nM.

**Q.** How did the IC50 turn out when O=C(OCc1cc(C(F)(F)F)cc(C(F)(F)F)c1)N1CCn2nc(-c3ccncc3)cc2C1 [Example 499] was run?
**A.** Its IC50 is ≤ 100 nM.

**Q.** For O=C(OCc1cc(Cl)cc(C(F)(F)F)c1)N1CCCn2nc(C(=O)N3CCNC(C(F)(F)F)C3)cc2C1 (stereo not drawn) [Example 189], which IC50 is on record?
**A.** Its IC50 is ≤ 100 nM.

**Q.** With O=C(OCc1cc(C(F)(F)F)cc(C(F)(F)F)c1)N1CCCn2nc(S(=O)(=O)N3C4CCCC3CC4)cc2C1 [Example 305] as the molecule, how does the IC50 read?
**A.** Its IC50 is ≤ 100 nM.

**Q.** O=C(O)c1cc2n(n1)CCCN(C(=O)CCc1cc(Cl)cc(Cl)c1)C2 [Example 83, 5-(3-(3,5-Dichlorophenyl)propanoyl)-5,6,7,8-tetrahydro-4H-pyrazolo[1,5-a][1,4]diazepine-2-carboxylic acid] was tested. Which IC50 did it give?
**A.** Its IC50 is ≤ 100 nM.

**Q.** CNC1CCN(C(=O)c2cc3n(n2)CCCN(C(=O)OCc2cc(Cl)cc(C(F)(F)F)c2)C3)C1 (stereo not drawn) [Example 195] was tested. Which IC50 did it give?
**A.** The IC50 was ≤ 100 nM.

**Q.** Which IC50 does the source give for C#CCCCCNC(=O)c1cc2n(n1)CCCN(C(=O)OCc1cc(C(F)(F)F)cc(C(F)(F)F)c1)C2 [Example 190] here?
**A.** The IC50 was ≤ 100 nM.

**Q.** With CC1CNCC(C)N1C(=O)c1cc2n(n1)CCCN(C(=O)OCc1cc(Cl)cc(C(F)(F)F)c1)C2 (stereo not drawn) [Example 199] as the molecule, how does the IC50 read?
**A.** Its IC50 is ≤ 100 nM.

**Q.** How did the IC50 turn out when O=C(O)c1cc2n(c1)CCCN(C(=O)OCc1cc(Cl)cc(Cl)c1)C2 [Example 100, 2-(((3,5-Dichlorobenzyl)oxy)carbonyl)-2,3,4,5-tetrahydro-1H-pyrrolo[1,2-a][1,4]diazepine-8-carboxylic acid] was run?
**A.** Its IC50 is ≤ 100 nM.

**Q.** Which IC50 does the source give for O=C(OCc1cc(Cl)cc(Cl)c1)N1CCCn2nc(C(=O)N3CCC(F)CC3)cc2C1 [Example 20, 3,5-Dichlorobenzyl 2-(4-fluoropiperidine-1-carbonyl)-7,8-dihydro-4H-pyrazolo[1,5-a][1,4]diazepine-5(6H)-carboxylate] here?
**A.** Its IC50 is ≤ 100 nM.

**Q.** CC1CN(c2cc3n(n2)CCCN(C(=O)OCc2cc(C(F)(F)F)cc(C(F)(F)F)c2)C3)CCN1 (stereo not drawn) [Example 343] was tested. Which IC50 did it give?
**A.** The IC50 was ≤ 100 nM.

**Q.** O=C(OCc1cc(Cl)cc(C(F)(F)F)c1)N1CCCn2nc(C(=O)N3CCNCC34CCCC4)cc2C1 [Example 234] was tested. Which IC50 did it give?
**A.** The IC50 was ≤ 100 nM.

**Q.** How did the IC50 turn out when CN1CC2CCC1CN2C(=O)c1cc2n(n1)CCCN(C(=O)OCc1cc(C(F)(F)F)cc(C(F)(F)F)c1)C2 (stereo not drawn) [Example 222] was run?
**A.** The IC50 was ≤ 100 nM.

**Q.** For CCNC(=O)c1cc2n(n1)CCCN(C(=O)OCc1cc(Cl)cc(Cl)c1)C2 [Example 29, 3,5-Dichlorobenzyl 2-(ethylcarbamoyl)-7,8-dihydro-4H-pyrazolo[1,5-a][1,4]diazepine-5(6H)-carboxylate], which IC50 is on record?
**A.** The IC50 was ≤ 100 nM.

**Q.** How did the IC50 turn out when O=C(OCc1cc(Cl)cc(C(F)(F)F)c1)N1CCCn2nc(CNC3=NCCS3)cc2C1 [Example 153, 3-chloro-5-(trifluoromethyl)benzyl 2-(((4,5-dihydrothiazol-2-yl)amino)methyl)-7,8-dihydro-4H-pyrazolo[1,5-a][1,4]diazepine-5(6H)-carboxylate] was run?
**A.** The IC50 was ≤ 100 nM.

**Q.** How did the IC50 turn out when CC1(C)CN(C(=O)c2cc3n(n2)CCCN(C(=O)OCc2cc(Cl)cc(C(F)(F)F)c2)C3)CCN1 [Example 200] was run?
**A.** The IC50 was ≤ 100 nM.

**Q.** With CN(C)C(=O)c1cc2n(n1)CCN(C(=O)OCc1cc(C(F)(F)F)cc(C(F)(F)F)c1)C2 [Example 480] as the molecule, how does the IC50 read?
**A.** The IC50 was ≤ 250 nM.

**Q.** Which IC50 does the source give for O=C(OCc1cc(C(F)(F)F)cc(C(F)(F)F)c1)N1CCn2nc(C(=O)N3CCNCC3)cc2C1 [Example 435] here?
**A.** The IC50 was ≤ 100 nM.

**Q.** With N#CC1CNCCN1C(=O)c1cc2n(n1)CCCN(C(=O)OCc1cc(Cl)cc(C(F)(F)F)c1)C2 (stereo not drawn) [Example 196] as the molecule, how does the IC50 read?
**A.** Its IC50 is ≤ 100 nM.
